Article PMC7894407, “Rapid conversion of isoprene photooxidation products in terrestrial plants” (Communications earth & environment, 2020)

How the values were obtained:
[1] = system: T1, poplar AOR (EC 1.3.1.74), alkenal/one oxidoreductase; assay: NADPH consumption at A340 nm, MVK varied, leaf protein extract; type: biochemical, Populus x canescens; conditions: co-substrate NADPH; apparent in vitro, crude leaf extract; 50 mM Tris/HCl, 20 mM MgCl2, 5% glycerol, 2 mM DTT; read-out: Michaelis-Menten constant
T1 construct: gene AORchl; native enzyme in desalted (Sephadex G-25 PD-10) crude leaf protein extract, not purified; AORchl predominantly expressed in leaf, AORcyt-II in stem; active isoenzyme not determined

[2] = system: T1, poplar AOR (EC 1.3.1.74), alkenal/one oxidoreductase; assay: NADPH consumption at A340 nm, NADPH varied, leaf protein extract; type: biochemical, Populus x canescens; conditions: co-substrate MVK; apparent in vitro, crude leaf extract; 50 mM Tris/HCl, 20 mM MgCl2, 5% glycerol, 2 mM DTT; read-out: Michaelis-Menten constant

Row | Km [2] [mM] | SMILES | Km [1] [mM]
1 | – | C=CC(C)=O [MVK] | 14.1
2 | 0.049 | NC(=O)C1=CN([C@@H]2O[C@H](COP(=O)(O)OP(=O)(O)OC[C@H]3O[C@@H](n4cnc5c(N)ncnc54)[C@H](OP(=O)(O)O)[C@@H]3O)[C@@H](O)[C@H]2O)C=CC1 [NADPH] | –
